Converted amounts (≈) assume the structure as drawn.
How the values were obtained:
[1] = Dog pharmacokinetic studies, deep intramuscular administration; type: in vivo, Beagle dogs; settings: IM 48 mg/kg, Sesame oil + 1% Benzyl Alcohol; for AUC(0-inf) / half-life: Beagle, dog, plasma, im, 48 mg/kg; for AUC(0-inf): read-out: AUC0-inf (ng · h/mL) prodrug; for half-life: read-out: Half-life t1/2 (hour) prodrug (converted)
Procedure: The purpose of this study is to determine the pharmacokinetics of test compounds in plasma, following deep intramuscular administration to Beagle dogs (n=3, unless otherwise specified).
The dose formulation (concentration—400 mg base equivalents/ml in sesame oil+1% benzyl alcohol, unless otherwise specified) was administered via deep intramuscularly (unless otherwise specified). The injection vehicle was also dosed via deep intramuscular route (unless otherwise specified) on contralateral site of each animal at study initiation. The animals were sedated with Propofol at 6 mg/kg via IV administration. Following sedation hair was carefully removed from around the injection site and the area gently cleaned. Care will be taken to avoid irritating skin during shaving and cleaning the injection site. Then dogs will be dosed with deep IM administration. At least 2.5 cm depth from the surface into the central aspect of the quadriceps or biceps femoris muscle, by angling the needle toward the femur. If the needle hits the femur, simply draws back slightly and then inject. The dose volume will be determined by the animals' body weight collected on the morning of dosing day. For repeated administration, the injection sites may be rotated to minimize tissue injury.
Blood samples were collected from a peripheral vessel from restrained, non-sedated animals per sampling time point.
Approximately 0.8 mL blood will be collected at each time point.
Each collected blood sample was centrifuged for 4 minutes at 4° C. and 10000 rpm for plasma collection. Plasma was collected and transferred into a pre-labeled PP tube in dry ice at each time point and precipitated immediately using ACN at a ratio of 1:4 (plasma:ACN).
LC-MS/MS methods for the quantitative determination of test compound in biological matrix were developed. […] The sample analysis was performed concurrently with a set of calibration standards and two sets of QC samples using the LC-MS/MS method.
Plasma concentration versus time data was analyzed by non-compartmental approaches using the Phoenix WinNonlin 6.3 software program. Cmax, Tmax, T1/2, AUC(0-t), AUC(0-inf), MRT(0-t), MRT(0-inf) and graphs of plasma concentration versus time profile were prepared.

[2] = Polymorph screening of solid state drug substances (Table 23); type: physicochemical; settings: stirred 50 °C 72 hours; for Dry method and appearance: dried solid
[3] = Solubility determination in oil (Table 10); settings: thermodynamic from solid; for solubility thermodynamic: water, Equilibrium solubility: Water
Procedure: A known amount of test substance (˜40 mg) was weighed into the vial, 100 μL of oil was added and heated to 60° C. and then system was slurried to reach equilibrium. […] Extra oil was added into the vial once compound precipitated out and then the system was re-equilibrated at 1000 rpm at room temperature (25° C.). Final concentration was determined by HPLC method as described below in Table 6a and 6b.

[4] = 40 °C, oil or lipid, Approximate Solubility in Excipient: Cottonseed oil, Heating Temp. 40 °C, Obs. Temp. 40 °C
[5] = 40 °C, oil or lipid, Approximate Solubility in Excipient: Sesame oil, Heating Temp. 40 °C, Obs. Temp. 40 °C
[6] = 40 °C, organic solvent or mixture, Approximate Solubility in Excipient: Ethanol, Heating Temp. 40 °C, Obs. Temp. 40 °C
[7] = 40 °C, Heating Temp. 40 °C, Obs. Temp. 40 °C
[8] = 25 °C, oil or lipid, Solubility by volumetric flask method: Cottonseed oil, volumetric flask method, Heating Temp. 60 °C, Obs. Temp. 25 °C
[9] = 25 °C, oil or lipid, Solubility by volumetric flask method: Sesame oil, volumetric flask method, Heating Temp. 60 °C, Obs. Temp. 25 °C
[10] = 40 °C, section 'Solubility by volumetric flask method', Heating Temp. 40 °C, Obs. Temp. 40 °C
[11] = 25 °C, oil or lipid, Approximate Solubility in Excipient: Cottonseed oil, Heating Temp. 60 °C, Obs. Temp. 25 °C
[12] = 25 °C, oil or lipid, Approximate Solubility in Excipient: Sesame oil, Heating Temp. 60 °C, Obs. Temp. 25 °C

Row | Compound | AUC(0-inf) [1] | half-life [1] | XRPD results (Dried) ([2]; Acetone) | Dry method and appearance ([2]; Acetone) | XRPD results (Dried) ([2]; EtOAc) | Dry method and appearance ([2]; EtOAc) | XRPD results (Dried) ([2]; Heptane) | Dry method and appearance ([2]; Heptane) | XRPD results (Dried) ([2]; Isopropanol) | Dry method and appearance ([2]; Isopropanol) | XRPD results (Dried) ([2]; MTBE) | Dry method and appearance ([2]; MTBE) | solubility [3, 4] | solubility [3, 5] | solubility [3, 6] | solubility thermodynamic [3, 7] | other results
1 | C=C1CC[C@@]2(O)C3Cc4ccc(OCOC(=O)OCCCCCCCC/C=C/CCCCCCCC)c5c4[C@@]2(CCN3CC2CC2)[C@H]1O5 [Compound 1, (((4aS,7aS,12bS)-3-(cyclopropylmethyl)-4a-hydroxy-7-methylene-2,3,4,4a,5,6,7,7a-octahydro-1H-4,12-methanobenzofuro[3,2-e]isoquinolin-9-yl)oxy)methyl ((E)-octadec-9-en-1-yl) carbonate] | 1040 ng·h/mL | 261 h | – | – | – | – | – | – | – | – | – | – | – | – | – | – | –
2 | C=C1CC[C@@]2(O)C3Cc4ccc(OC(=O)CCCCCCCCCCCCCCCCCCC)c5c4[C@@]2(CCN3CC2CC2)[C@H]1O5 [Compound 16, (4aS,7aS,12bS)-3-(cyclopropylmethyl)-4a-hydroxy-7-methylene-2,3,4,4a,5,6,7,7a-octahydro-1H-4,12-methanobenzofuro[3,2-e]isoquinolin-9-yl icosanoate] | – | – | Pattern A | Evaporation/white powder | Pattern A | Evaporation/white powder | Pattern A | Centrifugation/white powder | Pattern A | Centrifugation/white powder | Pattern A | Evaporation/white powder | 57 to 67 mg/mL (≈ 89.9 to 106 mM) | 68 to 81 mg/mL (≈ 107 to 128 mM) | < 25 mg/mL | 0.206 mg/mL (≈ 0.325 mM) | solubility ([3]; 40 °C, oil or lipid, Approximate Solubility in Excipient: Cottonseed oil, Heating Temp. 60 °C, Obs. Temp. 40 °C): 201 to 403 mg/mL (≈ 317 to 636 mM); solubility ([3]; 40 °C, oil or lipid, Approximate Solubility in Excipient: Sesame oil, Heating Temp. 60 °C, Obs. Temp. 40 °C): 202 to 404 mg/mL (≈ 319 to 637 mM); solubility thermodynamic ([3]; 40 °C, Heating Temp. 60 °C, Obs. Temp. 40 °C): 0.011 mg/mL (≈ 0.0174 mM)
3 | CCCCCCCC/C=C/CCCCCCCCOC(=O)OCOc1ccc2c3c1O[C@H]1C(=O)CC[C@@]4(O)C(C2)N(CC2CC2)CC[C@]314 [Compound 7, (((4aS,7aR,12bS)-3-(cyclopropylmethyl)-4a-hydroxy-7-oxo-2,3,4,4a,5,6,7,7a-octahydro-1H-4,12-methanobenzofuro[3,2-e]isoquinolin-9-yl)oxy)methyl ((E)-octadec-9-en-1-yl) carbonate] | 610 ng·h/mL | – | – | – | – | – | – | – | – | – | – | – | – | – | – | – | –
4 | C=C1CC[C@@]2(O)C3Cc4ccc(OC(=O)OCCCCCCCCCCC)c5c4[C@@]2(CCN3CC2CC2)[C@H]1O5 [Compound 3, (4aS,7aS,12bS)-3-(cyclopropylmethyl)-4a-hydroxy-7-methylene-2,3,4,4a,5,6,7,7a-octahydro-1H-4,12-methanobenzofuro[3,2-e]isoquinolin-9-yl undecyl carbonate] | 360 ng·h/mL | 63.1 h | – | – | – | – | – | – | – | – | – | – | – | – | – | – | solubility [3, 8]: > 399 mg/mL; solubility [3, 9]: > 401 mg/mL; solubility thermodynamic [3, 10]: < 0.001 mg/mL
5 | C=C1CC[C@@]2(O)C3Cc4ccc(OC(=O)OCCCCCCCCCCCCCC)c5c4[C@@]2(CCN3CC2CC2)[C@H]1O5 [Compound 31, (4aS,7aS,12bS)-3-(cyclopropylmethyl)-4a-hydroxy-7-methylene-2,3,4,4a,5,6,7,7a-octahydro-1H-4,12-methanobenzofuro[3,2-e]isoquinolin-9-yl tetradecyl carbonate] | – | – | Pattern A | Evaporation/white powder | Pattern A | Evaporation/white powder | Pattern A | Evaporation/white powder | Pattern A | Evaporation/white powder | Pattern A | Evaporation/white powder | – | – | – | < 0.001 mg/mL | solubility at 24 h [3, 11]: > 417 mg/mL; solubility at 24 h [3, 12]: > 414 mg/mL
6 | CCCCCCCCCCCCOC(=O)Oc1ccc2c3c1O[C@H]1C(=O)CC[C@@]4(O)C(C2)N(CC2CC2)CC[C@]314 [Compound 11, (4aS,7aR,12bS)-3-(cyclopropylmethyl)-4a-hydroxy-7-oxo-2,3,4,4a,5,6,7,7a-octahydro-1H-4,12-methanobenzofuro[3,2-e]isoquinolin-9-yl dodecyl carbonate] | – | – | Pattern A | Evaporation/white powder | Pattern A | Evaporation/white powder | Pattern B | Evaporation/white powder | Pattern A | Evaporation/white powder | Pattern A | Evaporation/white powder | > 407 mg/mL | > 407 mg/mL | > 218 mg/mL | 0.0005 mg/mL (≈ 0.000903 mM) | solubility at 24 h [3, 11]: < 51 mg/mL; solubility at 24 h [3, 12]: < 50 mg/mL; solubility thermodynamic ([3]; after slurry in Heptane, temperatures N/A): 0.0026 mg/mL (≈ 0.0047 mM)
7 | C=C1CC[C@@]2(O)C3Cc4ccc(OCOC(=O)OCCCCCCCCCC)c5c4[C@@]2(CCN3CC2CC2)[C@H]1O5 [Compound 35, (((4aS,7aS,12bS)-3-(cyclopropylmethyl)-4a-hydroxy-7-methylene-2,3,4,4a,5,6,7,7a-octahydro-1H-4,12-methanobenzofuro[3,2-e]isoquinolin-9-yl)oxy)methyl decyl carbonate] | – | 70 h | – | – | – | – | – | – | – | – | – | – | – | – | – | – | AUC0-inf (ng · h/mL) nalmefene or naltrexone [1]: None; AUC0-inf (ng · h/mL) prodrug [1]: None
8 | C=C1CC[C@@]2(O)C3Cc4ccc(OC(=O)OCCCCCCCCCCCCCCCC)c5c4[C@@]2(CCN3CC2CC2)[C@H]1O5 [Compound 19, (4aS,7aS,12bS)-3-(cyclopropylmethyl)-4a-hydroxy-7-methylene-2,3,4,4a,5,6,7,7a-octahydro-1H-4,12-methanobenzofuro[3,2-e]isoquinolin-9-yl hexadecyl carbonate] | – | – | Pattern A | Evaporation/white powder | Pattern A | Evaporation/white powder | Pattern A | Evaporation/white powder | Pattern A | Evaporation/white powder | Pattern A | Evaporation/white powder | 67 to 80 mg/mL (≈ 110 to 132 mM) | 103 to 137 mg/mL (≈ 169 to 225 mM) | 27 to 42 mg/mL (≈ 44.4 to 69.1 mM) | 0.0468 mg/mL (≈ 0.077 mM) | –
9 | CCCCCCCCCCCOC(=O)OCOc1ccc2c3c1O[C@H]1C(=O)CC[C@@]4(O)C(C2)N(CC2CC2)CC[C@]314 [Compound 4, (((4aS,7aR,12bS)-3-(cyclopropylmethyl)-4a-hydroxy-7-oxo-2,3,4,4a,5,6,7,7a-octahydro-1H-4,12-methanobenzofuro[3,2-e]isoquinolin-9-yl)oxy)methyl undecyl carbonate] | 829 ng·h/mL | – | – | – | – | – | – | – | – | – | – | – | – | – | – | – | solubility [3, 8]: > 395 mg/mL; solubility [3, 9]: > 400 mg/mL; solubility thermodynamic [3, 10]: < 0.001 mg/mL

From US20190308988A1, “OPIOID RECEPTOR ANTAGONIST PRODRUGS” (Nirsum Laboratories, Inc., priority 2017, published 2019)
